{
  "source": "patent US20180353461A1",
  "about": "“USE OF CANNABINOIDS AS CERAMIDE-GENERATING ANTICANCER AGENTS IN TUMORS OF THE HEMATOPOIETIC AND LYMPHOID TISSUES” (priority 2014, published 2018)",
  "key": {"HL60 cells": {"tested_on": "HL60 cells", "experiment": "Western blot time course of apoptotic proteins in HL60 cells", "type": "cell-based, human", "experimental": "Protein analyses were performed by Western blot in several sets of assays: expression pattern of CBs-receptors in AML cell lines and primary cells, and time course after treatment with cannabinoids in AML cell lines.\nCells were solubilized with ice-cold lysis buffer containing 2% ASB-14 (CalbioChem, San Diego, Calif., USA), 1% Nonidet P-40 (Ipegal®), 137 mM NaCl, 20 mM Tris-HCl pH 7.5 at 4° C. (all from Sigma-Aldrich), 2 mM Na3VO4, 20 mM NaF (New England BioLabs Inc., Ipswich, Mass., USA), 2 mM DTT (AppliChem, Darmstadt, Germany), protease inhibitor cocktail (Roche Diagnostics GmbH, Mannheim, Germany), and 10 ul Nuclease Mix (Amersham GE Healthcare, Uppsala, Sweden). Insoluble materials were removed by centrifugation at 13,000×g for 15 min at 4° C. Protein content was determined by Pierce® Microplate BCA Protein Assay kit-Reducing Agent Compatible (Thermo Fisher Scientific).\nExtracted proteins (15-25 ug/well) were separated by sodium dodecyl sulfate-polyacrylamide gel electrophoresis (SDS/PAGE) in pre-cast polyacrylamide gels AnykD (Bio-Rad Laboratories, Hercules, Calif., USA) under reducing and denaturing conditions. Electrophoretic run was performed at a constant current of 15 mA per gel in a Mini-Protean® Tetra Cell (Bio-Rad Laboratories) and were electrophoretically transferred onto PVDF membranes using Trans-Blot® Turbo™ System (Bio-Rad Laboratories). Blocking was performed with 2% bovine serum albumin [(BSA), Santa Cruz Biotechnology] in Tween-Tris buffer saline (TTBS). Membranes were incubated overnight at 4° C. with corresponding primary antibody in TTBS.\nDetection was performed using Western Blotting Luminol Reagent (Santa Cruz Biotechnology).\nAs in the case of MM cells, the antiproliferative effect of cannabinoids in AML is mediated by apoptotic mechanisms. […] Next, we evaluated Casp-3 activation using an antibody that recognizes the active forms of Casp-3, this is, the […]. […]"}, "U266 cells": {"tested_on": "U266 cells", "experiment": "Western blot of signaling pathways (MAPKs, Akt) in U266 cells", "type": "cell-based, human", "experimental": "Protein analyses were performed by Western blot in several sets of assays: expression pattern of CBs-receptors in MM cell lines and primary cells, and time course after treatment with cannabinoids in MM cell lines. Time-course assays were performed at 0, 2, 6, 18 and 24 hours. Anyway, obtaining cell lysates was conducted according to a protocol adapted to phosphorylation-dependent signaling, described by Gilbert et al. (2002). Briefly, 10e7 cells per condition were harvested at indicated times, washed with iced-cold PBS and lysate in isotonic lysis buffer 30 min keeping on ice. Isotonic lysis buffer contained 2% ASB-14 (CalbioChem, San Diego, Calif., USA),1% Nonidet P-40 (Ipegal®), 137 mM NaCl, 20mM Tris-HCl pH 7.5 at 4° C. (all from Sigma-Aldrich), 2 mM Na3VO4, 20 mM NaF (New England BioLabs Inc., Ipswich, Mass., USA), 2 mM DTT (AppliChem, Darmstadt, Germany), protease inhibitor cocktail (Roche Diagnostics GmbH, Mannheim, Germany), and 10 ul Nuclease Mix (Amersham GE Healthcare, Uppsala, Sweden). After lysis, samples were centrifuged at 13,000×g for 5 min at 4° C., and supernatants collected. Protein concentration in samples was determined by Pierce® Microplate BCA Protein Assay kit-Reducing Agent Compatible (Thermo Fisher Scientific). Before loading the samples in the gel, they were diluted in loading sample buffer (0.125 M Tris-HCl pH 6.8, 4% SDS, 20% glycerol, 0.02% Bromophenol Blue, 200 mM DTT) and the mixture was heated at 70° C. for 5 min in a thermoblock (LabNet International, N.J., USA).\nSamples (15-25 ug/lane) were subjected to SDS/PAGE in pre-cast polyacrylamide gels AnykD (Bio-Rad Laboratories, Hercules, CA, USA) under reducing and denaturing conditions. Electrophoretic run was performed at a constant current of 15 mA per gel in a Mini-Protean® Tetra Cell (Bio-Rad Laboratories). Once proteins were separated by electrophoresis, were transferred onto PVDF membranes using Trans-Blot® Turbo™ System (Bio-Rad Laboratories). Electrotransference was conducted at constant amperage of 1.2 mA and at up to 25 V of voltage. The blotted membranes were then blocked with 2% bovine serum albumin [(BSA), Santa Cruz Biotechnology] in Tween-Tris buffer saline (TTBS) for 30 min with gentle agitation, and incubated overnight at 4° C. with corresponding primary antibody in TTBS. After twice washing with TTBS, membranes were incubated for 1-2 h at room temperature with suitable conjugated-HRP secondary antibody, and subjected to chemiluminescence detection using Western Blotting Luminol Reagent (Santa Cruz Biotechnology). Loading controls were carried out with an anti-beta-actin and anti-beta-tubulin antibodies (Sigma-Aldrich). Blots were captured using a digital imaging system ImageQuant LAS 4000 (Amersham GE Healthcare) and transferred to a digital image processing software to analyze (Adobe Photoshop CS2, version 9.0., Adobe Systems Inc., San Jose, Calif.).\nSignaling pathways targeted by cannabinoids in myelomatous cells. To get further insights into the mechanisms of cannabinoids-induced apoptosis, we assessed the expression profile of phosphorylated-JNK, -Erk1/2, -p38 MAPK and -Akt by Western blot."}},
  "data": [
    {"smiles": "CS(=O)(=O)O.Cc1c(C(=O)c2cccc3ccccc23)c2cccc3c2n1[C@H](CN1CCOCC1)CO3", "note": "[WIN-55, (R)-(+)-[2,3-dihydro-5-methyl-3-(4-morpholinylmethyl)-pyrrolo-[1,2,3]-1,4-benzoxazin-6-yl]-1-naphthalenylmethanone mesylate]", "values": [
      {"measurement": "full-length PARP", "setting": "HL60 cells; HL60, WIN-55 50 uM, time course", "result": "decrease"},
      {"measurement": "85 kDa fragment of PARP", "setting": "HL60 cells; HL60, time course", "result": "increase"},
      {"measurement": "expression of the active 12 kDa-cleaved form of Casp-3", "setting": "HL60 cells; HL60, time course", "result": "increased over time"},
      {"measurement": "p-Akt at early time points", "setting": "U266 cells; U266", "result": "significant up-regulation"},
      {"measurement": "p-Akt expression levels at later times", "setting": "U266 cells; U266", "result": "sharp decline"},
      {"measurement": "total Akt-expression, first 6 hours of exposure", "setting": "U266 cells; U266", "result": "remained unchanged"},
      {"measurement": "p-JNK", "setting": "U266 cells; U266, WIN-55 50 uM", "result": "slightly up-regulated"},
      {"measurement": "up-regulation of p-Erk1/2, compared with the slight up-regulation of p-JNK", "setting": "U266 cells; U266, WIN-55 50 uM", "result": "to a lesser extent"},
      {"measurement": "p-p38 MAPK", "setting": "U266 cells; U266, time-dependent", "result": "moderately downregulated"}
    ]}
  ]
}
